Our source for the EC50 values is patent publication US20110172147A1, “NEUROPEPTIDE-2 RECEPTOR (Y-2R) AGONISTS” (priority 2009, published 2011).

Like-named read-outs stand apart in the source and are kept apart here.

Holding throughout (assay type): cell-based
Experiment [1] addresses T1, Y1R (Homo sapiens, UniProt P25929).
T1 sequence (P25929 1-384): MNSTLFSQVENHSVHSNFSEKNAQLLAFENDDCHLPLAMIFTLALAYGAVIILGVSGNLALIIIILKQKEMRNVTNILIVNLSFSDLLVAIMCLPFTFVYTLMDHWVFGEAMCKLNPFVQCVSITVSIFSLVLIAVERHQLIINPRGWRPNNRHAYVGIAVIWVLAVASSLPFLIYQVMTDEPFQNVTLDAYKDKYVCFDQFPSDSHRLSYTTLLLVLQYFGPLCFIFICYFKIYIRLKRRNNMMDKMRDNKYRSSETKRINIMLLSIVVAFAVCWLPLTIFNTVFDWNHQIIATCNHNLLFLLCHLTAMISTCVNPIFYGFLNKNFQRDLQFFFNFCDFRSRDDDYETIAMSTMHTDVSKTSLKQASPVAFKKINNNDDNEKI
The experiment in a line: CaFlux Assay (FLIPR), Y1R.

Experiment [2] deals with Y4R (Homo sapiens, UniProt P50391). The experiment can be described thus: CaFlux Assay (FLIPR), Y4R.
Sequence of Y4R (P50391 whole entry): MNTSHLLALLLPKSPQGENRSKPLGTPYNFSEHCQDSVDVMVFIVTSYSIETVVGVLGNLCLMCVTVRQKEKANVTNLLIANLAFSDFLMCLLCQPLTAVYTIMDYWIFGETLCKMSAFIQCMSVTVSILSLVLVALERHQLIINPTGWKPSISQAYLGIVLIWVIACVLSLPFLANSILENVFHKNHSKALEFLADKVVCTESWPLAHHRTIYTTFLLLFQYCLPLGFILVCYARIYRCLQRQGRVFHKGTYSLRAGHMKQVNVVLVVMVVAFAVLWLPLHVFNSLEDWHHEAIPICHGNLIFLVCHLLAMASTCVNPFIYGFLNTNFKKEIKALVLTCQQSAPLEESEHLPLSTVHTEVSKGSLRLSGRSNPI
Experiment [3] has as its target T2, Y5R (Homo sapiens, UniProt Q15761).
T2 sequence (Q15761 1-445): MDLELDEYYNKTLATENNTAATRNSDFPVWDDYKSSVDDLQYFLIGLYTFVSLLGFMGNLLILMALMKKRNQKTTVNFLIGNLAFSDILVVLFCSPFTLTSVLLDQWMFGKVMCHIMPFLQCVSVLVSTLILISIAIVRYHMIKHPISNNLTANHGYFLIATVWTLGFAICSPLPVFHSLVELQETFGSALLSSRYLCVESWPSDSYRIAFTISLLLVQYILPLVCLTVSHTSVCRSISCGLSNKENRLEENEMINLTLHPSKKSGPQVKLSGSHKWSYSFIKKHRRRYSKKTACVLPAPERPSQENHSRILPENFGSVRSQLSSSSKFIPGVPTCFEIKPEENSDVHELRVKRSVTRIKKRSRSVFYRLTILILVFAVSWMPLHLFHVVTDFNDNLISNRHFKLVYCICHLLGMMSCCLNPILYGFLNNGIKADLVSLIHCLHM
The experiment can be described thus: CaFlux Assay (FLIPR), Y5R.

Experiment [4] addresses T3, hNPY2R (Homo sapiens, UniProt P49146).
T3 sequence (P49146 1-381): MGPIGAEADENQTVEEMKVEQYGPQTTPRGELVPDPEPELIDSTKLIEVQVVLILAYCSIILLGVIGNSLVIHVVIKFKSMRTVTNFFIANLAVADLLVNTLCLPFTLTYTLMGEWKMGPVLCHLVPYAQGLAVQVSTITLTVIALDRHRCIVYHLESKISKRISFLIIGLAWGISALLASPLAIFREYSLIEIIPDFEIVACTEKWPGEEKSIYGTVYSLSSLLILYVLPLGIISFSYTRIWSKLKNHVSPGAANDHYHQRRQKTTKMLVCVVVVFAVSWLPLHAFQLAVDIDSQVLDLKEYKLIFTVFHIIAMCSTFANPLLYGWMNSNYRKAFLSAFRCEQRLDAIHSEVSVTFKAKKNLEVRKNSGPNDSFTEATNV
The experiment in a line: cAMP Agonist Assay, HEK293/hNPY2R. Also noted: expressed in transfected cells; host or cells: HEK293/hNPY2R (G418 selection). In outline:
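HEK293/hNPY2R cells (10,000/well, overnight) stimulated 30 min at room temperature with compound plus 5 μM forskolin and 0.5 mM IBMX (1.1% DMSO final). Lysate cAMP measured by competitive chemiluminescent ELISA (AP conjugate, CSPD substrate); quadruplicates.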

[5] abbreviates: FLIPR; read-out: Y1R EC50 (nM) FLIPR.
The mark [6] stands for this setting: FLIPR; read-out: Y4R EC50 (nM) FLIPR.
The mark [7] stands for this setting: FLIPR; read-out: Y5R EC50 (nM) FLIPR.
The mark [8] stands for this setting: HEK293/hNPY2R cells, Forskolin 5 μM; read-out: Y2R EC50 (nM) cAMP.

As a reminder, the EC50 is the concentration that produces a half-maximal response. Turning to `CC[C@H](C)[C@H](NC(C)=O)C(=O)N[C@@H](CCCCNC(=O)CCOCCOCCOCCOCCOCCOCCOCCOCCOCCOCCOCCOCCOCCOCCOCCOCCOCCOCCOCCOCCOCCOCCOCCOC)C(=O)N1CCN(c2ccc3ncn(CC(=O)N[C@@H](CCCNC(=N)N)C(=O)N[C@@H](Cc4c[nH]cn4)C(=O)N[C@@H](Cc4ccc(O)cc4)C(=O)N[C@@H](CC(C)C)C(=O)N[C@@H](CC(N)=O)C(=O)N[C@@H](Cc4c[nH]c5ccccc45)C(=O)N[C@H](C(=O)N[C@H](C(=O)N[C@@H](CCCNC(=N)N)C(=O)N[C@@H](CCC(N)=O)C(=O)N(C)[C@@H](CCCNC(=N)N)C(=O)N[C@@H](Cc4ccc(O)cc4)C(N)=O)[C@@H](C)O)C(C)C)c(=O)c3c2)CC1` [Example 21], the EC50 in experiment [1] (setting [5]) was over 6000 nM; in experiment [2] (setting [6]), over 6000 nM; in experiment [3] (setting [7]), over 6000 nM; in experiment [4] (setting [8]) it was 1.29 nM.
As to `CCCCCCCCCCCCCCCCCCCC(=O)N[C@@H](CCS(=O)(=O)O)C(=O)N[C@@H](CCS(=O)(=O)O)C(=O)NCCCC[C@H](NC(=O)[C@@H](NC(=O)CCOCCOCCOCCOCCOCCOCCOCCOCCOCCOCCOCCOCCOCCOCCOCCOCCOCCOCCOCCOCCOCCOCCOCCOC)[C@@H](C)CC)C(=O)N1CCN(c2ccc3ncn(CC(=O)N[C@@H](CCCNC(=N)N)C(=O)NC(Cc4c[nH]cn4)C(=O)N[C@@H](Cc4ccc(O)cc4)C(=O)NC(CC(C)C)C(=O)N[C@@H](CC(N)=O)C(=O)NC(Cc4c[nH]c5ccccc45)C(=O)N[C@H](C(=O)N[C@H](C(=O)N[C@@H](CCCNC(=N)N)C(=O)NC(CCC(N)=O)C(=O)N(C)[C@@H](CCCNC(=N)N)C(=O)NC(Cc4ccc(O)cc4)C(N)=O)[C@@H](C)O)C(C)C)c(=O)c3c2)CC1` (stereo partly drawn) [Example 27], the EC50 in experiment [1] (setting [5]) is over 6000 nM; in experiment [2] (setting [6]), over 6000 nM; in experiment [3] (setting [7]) it was over 6000 nM; in experiment [4] (setting [8]) it was 2.3 nM.
For `CCCCCCCCCCCCCCCCCCCC(=O)N[C@@H](CCS(=O)(=O)O)C(=O)N[C@@H](CCS(=O)(=O)O)C(=O)NCCCC[C@H](NC(=O)[C@@H](NC(=O)CCOCCOCCOCCOCCOCCOCCOCCOCCOCCOCCOCCOCCOCCOCCOCCOCCOCCOCCOCCOCCOCCOCCOCCOC)[C@@H](C)CC)C(=O)N1CCN(c2ccc3ncn(CC(=O)N[C@@H](CCCNC(N)=O)C(=O)NC(Cc4c[nH]cn4)C(=O)N[C@@H](Cc4ccc(O)cc4)C(=O)NC(CC(C)C)C(=O)N[C@@H](CC(N)=O)C(=O)NC(Cc4c[nH]c5ccccc45)C(=O)N[C@H](C(=O)N[C@H](C(=O)N[C@@H](CCCNC(=N)N)C(=O)NC(CCC(N)=O)C(=O)N(C)[C@@H](CCCNC(=N)N)C(=O)NC(Cc4ccc(O)cc4)C(N)=O)[C@@H](C)O)C(C)C)c(=O)c3c2)CC1` (stereo partly drawn) [Example 28], the concentration for a half-maximal effect (EC50) was over 6000 nM in experiment [1] (setting [5]), over 6000 nM in experiment [2] (setting [6]), 1320 nM in experiment [3] (setting [7]) and 1.8 nM in experiment [4] (setting [8]).
`CCCCCCCCCCCCCCCC(=O)N[C@@H](CCS(=O)(=O)O)C(=O)N[C@@H](CCS(=O)(=O)O)C(=O)NCCCC[C@H](NC(=O)[C@@H](NC(=O)CCOCCOCCOCCOCCOCCOCCOCCOCCOCCOCCOCCOCCOCCOCCOCCOCCOCCOCCOCCOCCOCCOCCOCCOC)[C@@H](C)CC)C(=O)N1CCN(c2ccc3ncn(CC(=O)N[C@@H](CCCNC(=N)N)C(=O)NC(Cc4c[nH]cn4)C(=O)N[C@@H](Cc4ccc(O)cc4)C(=O)NC(CC(C)C)C(=O)N[C@@H](CC(N)=O)C(=O)NC(Cc4c[nH]c5ccccc45)C(=O)N[C@H](C(=O)N[C@H](C(=O)N[C@@H](CCCNC(=N)N)C(=O)NC(CCC(N)=O)C(=O)N(C)[C@@H](CCCNC(=N)N)C(=O)NC(Cc4ccc(O)cc4)C(N)=O)[C@@H](C)O)C(C)C)c(=O)c3c2)CC1` (stereo partly drawn) [Example 29]: the EC50 in experiment [1] (setting [5]) is over 6000 nM; in experiment [2] (setting [6]) it was over 6000 nM; in experiment [3] (setting [7]), over 6000 nM; in experiment [4] (setting [8]), 0.14 nM.
With `CCCCCCCCCCCCCCCCCCCC(=O)NCCCCCC(=O)N[C@H](C(=O)N[C@@H](CCCCNC(=O)CCOCCOCCOCCOCCOCCOCCOCCOCCOCCOCCOCCOCCOCCOCCOCCOCCOCCOCCOCCOCCOCCOCCOCCOC)C(=O)N1CCN(c2ccc3ncn(CC(=O)N[C@@H](CCCNC(=N)N)C(=O)N[C@@H](Cc4c[nH]cn4)C(=O)N[C@@H](Cc4ccc(O)cc4)C(=O)N[C@@H](CC(C)C)C(=O)N[C@@H](CC(N)=O)C(=O)N[C@@H](Cc4c[nH]c5ccccc45)C(=O)N[C@H](C(=O)N[C@H](C(=O)N[C@@H](CCCNC(=N)N)C(=O)N[C@@H](CCC(N)=O)C(=O)N(C)[C@@H](CCCNC(=N)N)C(=O)N[C@@H](Cc4ccc(O)cc4)C(N)=O)[C@@H](C)O)C(C)C)c(=O)c3c2)CC1)[C@@H](C)CC` [Example 35], the EC50 in experiment [1] (setting [5]) is over 6000 nM; in experiment [2] (setting [6]), over 6000 nM; in experiment [3] (setting [7]) it was 1010 nM; in experiment [4] (setting [8]), 0.17 nM.
Turning to `CC[C@H](C)[C@H](NC(=O)[C@H](CCC(=O)O)NC(=O)[C@H](CCC(=O)O)NC(=O)CCCCCCCCCCCCCCC(=O)O)C(=O)N[C@@H](CCCCNC(=O)CCOCCOCCOCCOCCOCCOCCOCCOCCOCCOCCOCCOCCOCCOCCOCCOC)C(=O)N1CCN(c2ccc3ncn(CC(=O)N[C@@H](CCCNC(=N)N)C(=O)N[C@@H](Cc4c[nH]cn4)C(=O)N[C@@H](Cc4ccc(O)cc4)C(=O)N[C@@H](CC(C)C)C(=O)N[C@@H](CC(N)=O)C(=O)N[C@@H](Cc4c[nH]c5ccccc45)C(=O)N[C@H](C(=O)N[C@H](C(=O)N[C@@H](CCCNC(=N)N)C(=O)N[C@@H](CCC(N)=O)C(=O)N(C)[C@@H](CCCNC(=N)N)C(=O)N[C@@H](Cc4ccc(O)cc4)C(N)=O)[C@@H](C)O)C(C)C)c(=O)c3c2)CC1` [Example 54], the EC50 is over 6000 nM in experiment [1] (read-out: Y1R EC50 (nM) FLIPR; FLIPR); over 6000 nM in experiment [2] (read-out: Y4R EC50 (nM) FLIPR; FLIPR); over 6000 nM in experiment [3] (read-out: Y5R EC50 (nM) FLIPR; FLIPR); 36 nM in experiment [4] (read-out: Y2R EC50 (nM) cAMP; HEK293/hNPY2R cells, Forskolin 5 μM).
